The results in this text go back to patent EP0294538B1, “Use of nigericin for the production of a medicament for the treatment of viral diseases” (S O "PHARMACHIM", priority 1987, dated 1988).

In one series the test system is Herpes-Erkrankungen. Nature of the series: Efficacy of nigericin ointment depending on the start of treatment (Table 4). In kind it is in vivo, Patienten. Particulars: treatment begun on the first day; analysis of 88 patients. The source says:
Es wurde die Abhängigkeit zwischen der Wirksamkeit der Behandlung mit Nigerizin-Salbe und dem Beginn der Behandlung untersucht (siehe Tabelle 4). TABELLE 4
Bei 140 mit Nigerizin-Salbe behandelten Patienten wurde eine Wirksamkeit von 90% erreicht, verglichen mit weniger als 20% für die mit Placebo behandelten Kontrollgruppe. Die eingehende Analyse der Ergebnisse an 88 Patienten zeigt, daß es sehr wichtig ist, bei Nigerizin früh mit der Behandlung zu beginnen, wobei am ersten Tag die Wirksamkeit bis zu 100% beträgt. Bei den Patienten, die mit einer Placebo-Salbe behandelt wurden, wird die Wirksamkeit nicht durch die Phase der Erkrankung beeinflußt, was ihren nicht spezifischen Charakter beweist.

A further series deals with Ratten. Nature of the series: Chronic six-month toxicity by injection. Type of series: in vivo. Conditions: six months, doses up to 1/10 of LD₅₀ (up to 5,6 mg/kg), blood, coagulation, blood and urine biochemistry, liver, histology, general state, weight, behaviour. The procedure:
(§1) Bei Spritzenbehandlung: Die akute Toxizität bei weißen Ratten und Mäusen (=LD₅₀) liegt im Bereich von 55 bis 66 mg/kg. Die chronische sechsmonatige Toxizität in Dosen bis 1/10 der LD₅₀ beträgt bis zu 5,6 mg/kg. […] Die pharmakologische Untersuchung zeigte gute Toleranz bei verschiedenen Tieren bei Konzentrationen bis zu 1/10 der LD₅₀.

The next series concerns zentralen Nervensystem. The series is described as follows: Safety pharmacology: central nervous system. Particulars: in vivo. As for the experimental part:
as §1

The subject of series [1] is Herz-Blutgefäß-System von Katzen. Nature of the series: Safety pharmacology: cardiovascular system (blood pressure, electrocardiogram). Type of series: in vivo. Conditions: cats; blood pressure and electrocardiograms. As for the experimental part: as §1
Series [2] has as its system Glattmuskulatur des Magen-Darm-Wegs. Nature of the series: Safety pharmacology: smooth muscle of the gastrointestinal tract. Type of series: in vivo, Ratten und Kaninchen. Particulars: rats and rabbits. The procedure:
as §1

Series [3] can be described thus: Acute toxicity by injection (LD50). Set-up: species or system weißen Ratten und Mäusen. Particulars: in vivo, white rats and mice, read-out: akute Toxizität (=LD₅₀). As for the experimental part: as §1
The subject of a further series is trächtigen weißen Ratten. Nature of the series: Embryotoxicity and teratogenicity by injection. In kind it is in vivo. Conditions: doses up to 5,6 mg/kg, pregnant white rats. As for the experimental part: as §1
In series [4] the test system is Virus-Erkrankungen des Auges. The series is described as follows: Clinical study of different treatments of viral diseases of the eye (Table 1). Type of series: in vivo, Patienten. The source says: Ergebnisse der klinischen Untersuchungen von Nigerizin (s. Tabelle 1).
Das Nigerizin enthaltende Arzneimittel in Form von Tropfen, Salbe und Suppositorien wurde an insgesamt 711 Patienten mit verschiedenen Virus-Erkrankungen: Labial-, Fazial-, Genital- und Gluteal- oder Femoralherpes, Herpes und Adenovirus-Keratitis und Konjunktivitis, Vaginitis, Endocervicitis und Exocervicitis mit Herpes-Ethiologie, Herpes Zoster der Augen und Haut angewendet.
Nigerizin-Tropfen wurden an 112 Patienten in drei Augenkliniken des Medizinischen Akademie-Forschungsinstitutes für Augenkrankheiten, Lehrstuhl für Ophthalmologie an den Hochschulen für Medizin in Varna und in Pleven verabreicht.

Another series is described as follows: Mutagenicity. As for the experimental part: as §1
A further series relates to Auge eines Kaninchens. In kind it is in vivo, Kaninchen. Conditions: topical; doses 20 times the therapeutic concentrations; 10 days.
For the next series, the system named is verschiedenen Tieren. Nature of the series: Pharmacological tolerance study. Conditions: various animals; up to 1/10 of LD₅₀. In kind it is in vivo. As for the experimental part: as §1
The mark [5] stands for this setting: Adenovirus-Keratokonjunktivitis.

On to `COC1CC(CC2CCC(C)C(C(C)C(=O)O)O2)OC2(OC(C)(C3CCC(C)(C4OC(C5OC(O)(CO)C(C)CC5C)CC4C)O3)CC2C)C1C` (stereo not drawn) [Nigerizin], for which the Wirksamkeit in the series with Herpes-Erkrankungen is not above 100%. Moreover, the “chronische sechsmonatige Toxizität: Abweichungen der behandelten Ratten” value in the series with Ratten is on record as “keine Abweichungen”. The “Veränderungen im zentralen Nervensystem” value with zentralen Nervensystem is on record as “keine Veränderungen”. Also, the “Wirkung auf das Herz-Blutgefäß-System” value in series [1] was “keine Wirkung”. For the same molecule, in series [2], the “Funktionen der Glattmuskulatur des Magen-Darm-Wegs” value was “ändert nicht”. In addition, the LD50 in [3] was 55 to 66 mg/kg. Also, the “embryotoxische und terratogene Wirkung” value in the series on trächtigen weißen Ratten was “keine embryotoxische und terratogene Wirkung”. The “Dauer der Behandlung” value in [4] (compared with Idoxyridin, immune and physico-chemical means) is on record as “um mehr als zweimal verringert”. Moreover, the Mutagenität entry in “Mutagenicity” was “keine Mutagenität”. Further, the “toxische Wirkung am Auge” value in the series on Auge eines Kaninchens was “keine toxische Wirkung”. Further, in the series on verschiedenen Tieren, the Toleranz result is given as “gute Toleranz”.

Take `O=c1[nH]c(=O)n([C@H]2C[C@H](O)[C@@H](CO)O2)cc1I` [Idoxyridin, 2'-desoxy-5-iodo-uridin]: the “Dauer der Behandlung (Tage)” value in [4] (setting [5]) was 9,3 Tage; in [4] (Oberflächen-Herpeskeratitis), 17,9 Tage; in series [4] (Tiefe/Ulzerose/ Keratitis), 25,2 Tage. In addition, the “Prozent der günstigen Beeinflußung” value is listed as 41 Prozent in series [4] (setting [5]), 82 Prozent in series [4] (Oberflächen-Herpeskeratitis) and 51 Prozent in [4] (Tiefe/Ulzerose/ Keratitis). The “Durchschnittsaufenthalt im Krankenhaus (Tage)” value in series [4] (all clinical forms of the treatment group) is on record as 23,6 Tage.
